Test results from patent US20230143612A1 (Arbutus Biopharma Corporation, priority 2020, published 2023).

The compounds below were run against PD-L1 His protein / PD-1 Fc protein (Homo sapiens, UniProt Q9NZQ7) (assay: HTRF Assay (PD-1/PD-L1 interaction)). Settings: PD-L1 His 6 nM, PD-1 Fc 6 nM.
Type: binding
How it was run: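 HTRF: PD-L1 His (6 nM final), compound (3-fold dilutions, 20 μM to 0.001 μM final) and PD-1 Fc (6 nM final) preincubated 15 min at room temperature. Anti-human IgG-XL665 and anti-6HIS Tb cryptate (mixed at 6.7 nM and 0.35 nM) then added for 1 h at room temperature before reading.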

Sequence of PD-L1 His protein / PD-1 Fc protein (Q9NZQ7 19-238 limits assumed): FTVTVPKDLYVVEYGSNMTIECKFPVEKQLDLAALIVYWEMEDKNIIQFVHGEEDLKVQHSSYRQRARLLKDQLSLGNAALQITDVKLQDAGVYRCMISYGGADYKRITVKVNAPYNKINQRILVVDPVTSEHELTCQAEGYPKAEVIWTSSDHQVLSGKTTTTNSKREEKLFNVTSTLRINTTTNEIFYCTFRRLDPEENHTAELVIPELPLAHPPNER

Which IC50 does the source give for `COc1nc(-c2cccc(-c3cccc(-c4cc5c(=O)n(C)c(CNCCCF)nn5c4)c3Cl)c2Cl)ccc1CNC[C@@H]1CCC(=O)N1` [Example 437, (S)-6-(2,2′-Dichloro-3′-(6-methoxy-5-((((5-oxopyrrolidin-2-yl)methyl)amino)methyl)pyridin-2-yl)-[1,1′-biphenyl]-3-yl)-2-(((3-fluoropropyl)amino)methyl)-3-methylpyrrolo[2,1-f][1,2,4]triazin-4(3H)-one] here?
The IC50 was 52 nM.

Which IC50 does the source give for `COc1nc(-c2cccc(-c3cccc(-c4ccc5nc(C(=O)NCCN)cn5n4)c3Cl)c2Cl)ccc1CNC[C@@H]1CCC(=O)N1` [Example 438, N-(2-Aminoethyl)-6-[2-chloro-3-[2-chloro-3-[6-methoxy-5-[[[(2S)-5-oxopyrrolidin-2-yl]methylamino]methyl]-2-pyridyl]phenyl]phenyl]imidazo[1,2-b]pyridazine-2-carboxamide] here?
The IC50 was 14 nM.

With `COc1nc(-c2cccc(-c3cccc(-c4ccc5nc(C(=O)NC[C@H](C)N)cn5n4)c3Cl)c2Cl)ccc1CNC[C@@H]1CCC(=O)N1` [Example 439, N-[(2S)-2-Aminopropyl]-6-[2-chloro-3-[2-chloro-3-[6-methoxy-5-[[[(2S)-5-oxopyrrolidin-2-yl]methylamino]methyl]-2-pyridyl]phenyl]phenyl]imidazo[1,2-b]pyridazine-2-carboxamide] as the compound, how does the IC50 read?
Its IC50 is 20 nM.

For `COc1nc(-c2cccc(-c3cccc(-c4ccc5nc(C(=O)NCCc6c[nH]cn6)cn5n4)c3Cl)c2Cl)ccc1CNC[C@@H]1CCC(=O)N1` [Example 440, 6-[2-Chloro-3-[2-chloro-3-[6-methoxy-5-[[[(2S)-5-oxopyrrolidin-2-yl]methylamino]methyl]-2-pyridyl]phenyl]phenyl]-N-[2-(1H-imidazol-4-yl)ethyl]imidazo[1,2-b]pyridazine-2-carboxamide], which IC50 is on record?
The IC50 was 27 nM.

For `COc1nc(-c2cccc(-c3cccc(-c4ncc5c(n4)CCN(C[C@@H]4CCC(=O)N4)C5)c3Cl)c2Cl)ccc1CNC[C@@H]1CCC(=O)N1` [Example 443, (S)-5-((((6-(2,2′-Dichloro-3′-(6-(((S)-5-oxopyrrolidin-2-yl)methyl)-5,6,7,8-tetrahydropyrido[4,3-d]pyrimidin-2-yl)-[1,1′-biphenyl]-3-yl)-2-methoxypyridin-3-yl)methyl)amino)methyl)pyrrolidin-2-one], which IC50 is on record?
Its IC50 is 0.1 nM.

`COc1nc(-c2cccc(-c3cccc(-c4ccc5c(CNC[C@@H]6CCCO6)cn(C)c5n4)c3Cl)c2Cl)ccc1CNC[C@@H]1CCC(=O)N1` [Example 444, (5S)-5-[[[6-[2-Chloro-3-[2-chloro-3-[1-methyl-3-[[[(2S)-tetrahydrofuran-2-yl]methylamino]methyl]pyrrolo[2,3-b]pyridin-6-yl]phenyl]phenyl]-2-methoxy-3-pyridyl]methylamino]methyl]pyrrolidin-2-one] was tested. Which IC50 did it give?
Its IC50 is 920 nM.

`COc1nc(-c2cccc(-c3cccc(-c4ccc5c(CNC[C@H](C)OC)cn(C)c5n4)c3Cl)c2Cl)ccc1CNC[C@@H]1CCC(=O)N1` [Example 445, (5S)-5-[[[6-[2-Chloro-3-[2-chloro-3-[3-[[[(2S)-2-methoxypropyl]amino]methyl]-1-methyl-pyrrolo[2,3-b]pyridin-6-yl]phenyl]phenyl]-2-methoxy-3-pyridyl]methylamino]methyl]pyrrolidin-2-one] was tested. Which IC50 did it give?
Its IC50 is 460 nM.

Which IC50 does the source give for `COc1nc(-c2cccc(-c3cccc(-c4cc5c(=O)n(C)c(CNC6CC7(COC7)C6)nn5c4)c3Cl)c2Cl)ccc1CNC[C@@H]1CCC(=O)N1` [Example 446, 6-[2-Chloro-3-[2-chloro-3-[6-methoxy-5-[[[(2S)-5-oxopyrrolidin-2-yl]methylamino]methyl]-2-pyridyl]phenyl]phenyl]-3-methyl-2-[(2-oxaspiro[3.3]heptan-6-ylamino)methyl] pyrrolo[2,1-f][1,2,4]triazin-4-one] here?
Its IC50 is 160 nM.

With `COc1nc(-c2cccc(-c3cccc(-c4cc5c(=O)n(C)c(CN6CC7(COC7)C6)nn5c4)c3Cl)c2Cl)ccc1CNC[C@@H]1CCC(=O)N1` [Example 447, 6-[2-Chloro-3-[2-chloro-3-[6-methoxy-5-[[[(2S)-5-oxopyrrolidin-2-yl]methylamino]methyl]-2-pyridyl]phenyl]phenyl]-3-methyl-2-(2-oxa-6-azaspiro[3.3]heptan-6-ylmethyl)pyrrolo[2,1-f][1,2,4]triazin-4-one] as the compound, how does the IC50 read?
Its IC50 is 5 nM.

Which IC50 does the source give for `COc1nc(-c2cccc(-c3cccc(-c4cc5c(=O)n(C)c(CN6CC7(CCC(=O)N7)C6)nn5c4)c3Cl)c2Cl)ccc1CNC[C@@H]1CCC(=O)N1` [Example 448, 6-[2-Chloro-3-[2-chloro-3-[6-methoxy-5-[[[(2S)-5-oxopyrrolidin-2-yl]methylamino]methyl]-2-pyridyl]phenyl]phenyl]-3-methyl-2-[(6-oxo-2,5-diazaspiro[3.4]octan-2-yl)methyl]pyrrolo [2,1-f][1,2,4]triazin-4-one] here?
Its IC50 is 6.8 nM.

For `COc1nc(-c2cccc(-c3cccc(-c4cc5c(=O)n(C)c(CNC6CC7(CCC(=O)N7)C6)nn5c4)c3Cl)c2Cl)ccc1CNC[C@@H]1CCC(=O)N1` (stereo partly drawn) [Example 449, 6-[2-Chloro-3-[2-chloro-3-[6-methoxy-5-[[[(2S)-5-oxopyrrolidin-2-yl]methylamino]methyl]-2-pyridyl]phenyl]phenyl]-3-methyl-2-[[(6-oxo-5-azaspiro[3.4]octan-2-yl)amino]methyl] pyrrolo[2,1-f][1,2,4]triazin-4-one], which IC50 is on record?
Its IC50 is 450 nM.

How did the IC50 turn out when `COc1nc(-c2cccc(-c3cccc(-c4cc5c(=O)n(C)c(CNCCC6CCC(=O)N6)nn5c4)c3Cl)c2Cl)ccc1CNC[C@@H]1CCC(=O)N1` (stereo partly drawn) [Example 451, 6-[2-Chloro-3-[2-chloro-3-[6-methoxy-5-[[[(2S)-5-oxopyrrolidin-2-yl]methylamino]methyl]-2-pyridyl]phenyl]phenyl]-3-methyl-2-[[2-(5-oxopyrrolidin-2-yl)ethylamino]methyl]pyrrolo [2,1-f][1,2,4]triazin-4-one] was run?
Its IC50 is 200 nM.

How did the IC50 turn out when `COc1nc(-c2cccc(-c3cccc(-c4ccc5c(CNC[C@@H]6CCC(=O)N6)cn(C)c5c4)c3Cl)c2Cl)ccc1CNC[C@@H]1CCC(=O)N1` [Example 452, (5S)-5-[[[6-[2-Chloro-3-[2-chloro-3-[1-methyl-3-[[[(2S)-5-oxopyrrolidin-2-yl]methylamino]methyl]indol-6-yl]phenyl]phenyl]-2-methoxy-3-pyridyl]methylamino]methyl]pyrrolidin-2-one] was run?
Its IC50 is 68 nM.

How did the IC50 turn out when `Cn1cc(CNC[C@@H]2CCC(=O)N2)c2ccc(-c3cccc(-c4cccc(-c5ccn6c(=O)c(CNC[C@@H]7CCC(=O)N7)cnc6c5)c4Cl)c3Cl)cc21` [Example 453, 8-[2-Chloro-3-[2-chloro-3-[1-methyl-3-[[[(2S)-5-oxopyrrolidin-2-yl]methylamino]methyl]indol-6-yl]phenyl]phenyl]-3-[[[(2S)-5-oxopyrrolidin-2-yl]methylamino]methyl]pyrido[1,2-a]pyrimidin-4-one] was run?
Its IC50 is 1200 nM.

For `COc1nc(-c2cccc(-c3cccc(-c4cc5c(cn4)CN(CCNC[C@@H]4CCC(=O)N4)C5=O)c3Cl)c2Cl)ccc1CNC[C@@H]1CCC(=O)N1` [Example 454, 6-(2,2′-dichloro-3′-(6-methoxy-5-(((((S)-5-oxopyrrolidin-2-yl)methyl)amino)methyl)pyridin-2-yl)-[1,1′-biphenyl]-3-yl)-2-(2-((((S)-5-oxopyrrolidin-2-yl)methyl)amino)ethyl)-2,3-dihydro-1H-pyrrolo[3,4-c]pyridin-1-one], which IC50 is on record?
The IC50 was 0.1 nM.

Which IC50 does the source give for `COc1cc(-c2cccc(-c3cccc(-c4ccc(CNC[C@@H]5CCC(=O)N5)c(OC)n4)c3Cl)c2Cl)cc2c1CN(CCO)CC2` [Example 455, (S)-5-((((6-(2,2′-Dichloro-3′-(2-(2-hydroxyethyl)-8-methoxy-1,2,3,4-tetrahydroisoquinolin-6-yl)-[1,1′-biphenyl]-3-yl)-2-methoxypyridin-3-yl)methyl)amino)methyl)pyrrolidin-2-one] here?
Its IC50 is 12 nM.

For `COc1nc(-c2cccc(-c3cccc(-c4ccc5c(n4)CCC[C@H]5NC[C@@H]4CCC(=O)N4)c3Cl)c2Cl)ccc1CNC[C@@H]1CCC(=O)N1` [Example 456, (S)-5-((((6-(2,2′-Dichloro-3′-((R)-5-((((S)-5-oxopyrrolidin-2-yl)methyl)amino)-5,6,7,8-tetrahydroquinolin-2-yl)-[1,1′-biphenyl]-3-yl)-2-methoxypyridin-3-yl)methyl)amino)methyl)pyrrolidin-2-one], which IC50 is on record?
Its IC50 is 0.2 nM.

For `COc1nc(-c2cccc(-c3cccc(-c4cc5c(=O)n(C)c(CNC6CCN(C(C)=O)CC6)nn5c4)c3Cl)c2Cl)ccc1CNC[C@@H]1CCC(=O)N1` [Example 457, 2-[[(1-Acetyl-4-piperidyl)amino]methyl]-6-[2-chloro-3-[2-chloro-3-[6-methoxy-5-[[[(2S)-5-oxopyrrolidin-2-yl]methylamino]methyl]-2-pyridyl]phenyl]phenyl]-3-methyl-pyrrolo[2,1-f][1,2,4]triazin-4-one], which IC50 is on record?
The IC50 was 190 nM.

For `COc1nc(-c2cccc(-c3cccc(-c4cc5c(=O)n(C)c(CNCCN6CCCC6=O)nn5c4)c3Cl)c2Cl)ccc1CNC[C@@H]1CCC(=O)N1` [Example 458, 6-[2-Chloro-3-[2-chloro-3-[6-methoxy-5-[[[(2S)-5-oxopyrrolidin-2-yl]methylamino]methyl]-2-pyridyl]phenyl]phenyl]-3-methyl-2-[[2-(2-oxopyrrolidin-1-yl)ethylamino]methyl]pyrrolo[2,1-f][1,2,4]triazin-4-one], which IC50 is on record?
The IC50 was 240 nM.

With `COc1nc(-c2cccc(-c3cccc(-c4cnc5oc(CNC[C@@H]6CCC(=O)N6)cc5c4)c3Cl)c2Cl)ccc1CNC[C@@H]1CCC(=O)N1` [Example 459, (S)-5-((((6-(2,2′-Dichloro-3′-(2-(((((S)-5-oxopyrrolidin-2-yl)methyl)amino)methyl)furo[2,3-b]pyridin-5-yl)-[1,1′-biphenyl]-3-yl)-2-methoxypyridin-3-yl)methyl)amino)methyl)pyrrolidin-2-one] as the compound, how does the IC50 read?
The IC50 was 200 nM.
